The source of these data is PubChem BioAssay AID248 (DTP/NCI, 2004).

For the experiment, the system named is L1210 leukemia ip in BDF1 mice, survival T/C. Nature of the experiment: NCI In Vivo Anticancer Drug Screen. Data for tumor model L1210 Leukemia (intraperitoneal) in B6D2F1 (BDF1) mice. Conditions: higher = longer survival. The procedure, abridged: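 Antitumor effect is assessed in tumor-bearing animals. Survival in the compound arm is compared with a vehicle-dosed control arm and expressed as their quotient.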

[1] abbreviates: endpoint: mean survival time, dose: 100.0 mg/kg/injection, schedule: Q04DX002 (ip), vehicle: saline with Tween-80.
[2] abbreviates: endpoint: mean survival time, dose: 200.0 mg/kg/injection, schedule: Q04DX002 (ip), vehicle: saline with Tween-80.
Setting [3] is: endpoint: mean survival time, dose: 100.0 mg/kg/injection, schedule: Q04DX003 (ip), vehicle: saline with Tween-80.
The mark [4] stands for this setting: endpoint: mean survival time, dose: 200.0 mg/kg/injection, schedule: Q04DX003 (ip), vehicle: saline with Tween-80.
Setting [5] is: endpoint: mean survival time, dose: 400.0 mg/kg/injection, schedule: Q04DX003 (ip), vehicle: saline with Tween-80.
Setting [6] is: endpoint: mean survival time, dose: 100.0 mg/kg/injection, schedule: Q01DX009 (ip), vehicle: Klucel (hydroxypropylcellulose) (HPC).
The mark [7] stands for this setting: endpoint: mean survival time, dose: 200.0 mg/kg/injection, schedule: Q01DX009 (ip), vehicle: Klucel (hydroxypropylcellulose) (HPC).
The mark [8] stands for this setting: endpoint: mean survival time, dose: 100.0 mg/kg/injection, schedule: Q04DX003 (ip), vehicle: Klucel (hydroxypropylcellulose) (HPC).
[9] abbreviates: endpoint: mean survival time, dose: 200.0 mg/kg/injection, schedule: Q04DX003 (ip), vehicle: Klucel (hydroxypropylcellulose) (HPC).
[10] abbreviates: endpoint: mean survival time, dose: 400.0 mg/kg/injection, schedule: Q04DX003 (ip), vehicle: Klucel (hydroxypropylcellulose) (HPC).

Structures are written as SMILES. Values joined by “and” are separate entries in the source; they are usually repeats but may differ in a detail not shown here. Identical values can stand only once. Toxic doses and inconclusive results are not listed.

Regarding `CC1CC(C)NC(=S)N1` (stereo not drawn), the T/C is 98 % of control (endpoint: mean survival time, dose: 50.0 mg/kg/injection, schedule: Q04DX002 (ip), vehicle: saline with Tween-80); 102 % of control under setting [1]; 98 % of control under setting [2].
Regarding `CC(Cc1ccccc1)NCCCCl` (stereo not drawn), the T/C was 89 % of control (endpoint: mean survival time, dose: 15.0 mg/kg/injection, schedule: Q01DX001 (ip), vehicle: carboxymethylcellulose (CMC)); 95 % of control (endpoint: mean survival time, dose: 30.0 mg/kg/injection, schedule: Q01DX001 (ip), vehicle: carboxymethylcellulose (CMC)); 93 % of control (endpoint: mean survival time, dose: 60.0 mg/kg/injection, schedule: Q01DX001 (ip), vehicle: carboxymethylcellulose (CMC)).
Take `COC(=O)c1cc(C(=O)OC(C)(C)C)c(-c2ccc(OC)c(OC)c2)c2cc(OC)c(OC)cc12`: the T/C (endpoint: mean survival time, dose: 100.0 mg/kg/injection, schedule: Q01DX001 (ip), vehicle: saline) is 100 % of control; the T/C (endpoint: mean survival time, dose: 200.0 mg/kg/injection, schedule: Q01DX001 (ip), vehicle: saline) is 101 % of control; the T/C (endpoint: mean survival time, dose: 400.0 mg/kg/injection, schedule: Q01DX001 (ip), vehicle: saline) was 103 % of control.
Take `O=C(/C=C/c1ccccc1)NC(=S)Nc1ccc(CCO)cc1`: the T/C is 97 % of control and 111 % of control (endpoint: mean survival time, dose: 50.0 mg/kg/injection, schedule: Q01DX009 (ip), vehicle: saline with Tween-80); 100 % of control (endpoint: mean survival time, dose: 100.0 mg/kg/injection, schedule: Q01DX001 (ip), vehicle: saline with Tween-80); 96 % of control and 97 % of control under setting [1]; 102 % of control under setting [3]; 88 % of control (endpoint: mean survival time, dose: 200.0 mg/kg/injection, schedule: Q01DX001 (ip), vehicle: saline with Tween-80); 96 % of control and 101 % of control under setting [2]. Besides, the T/C runs as follows: under setting [4], 100 % of control; (endpoint: mean survival time, dose: 400.0 mg/kg/injection, schedule: Q01DX001 (ip), vehicle: saline with Tween-80) 90 % of control; (endpoint: mean survival time, dose: 400.0 mg/kg/injection, schedule: Q01DX009 (ip), vehicle: saline with Tween-80) 93 % of control and 95 % of control; (endpoint: mean survival time, dose: 400.0 mg/kg/injection, schedule: Q04DX002 (ip), vehicle: saline with Tween-80) 104 % of control; under setting [5], 87 % of control.
As to `Cc1ccc(Cl)cc1NC(=O)Oc1cc(C)c(Cl)c(C)c1`, the T/C was 94 % of control under setting [6] and 96 % of control under setting [7].
With `CC(C)(C)C1(C)CNC(=O)O1` (stereo not drawn), the T/C reads like this: (endpoint: mean survival time, dose: 6.0 mg/kg/injection, schedule: Q01DX009 (ip), vehicle: Klucel (hydroxypropylcellulose) (HPC)) 100 % of control; (endpoint: mean survival time, dose: 12.0 mg/kg/injection, schedule: Q01DX009 (ip), vehicle: Klucel (hydroxypropylcellulose) (HPC)) 104 % of control; (endpoint: mean survival time, dose: 25.0 mg/kg/injection, schedule: Q01DX009 (ip), vehicle: Klucel (hydroxypropylcellulose) (HPC)) 102 % of control; (endpoint: mean survival time, dose: 25.0 mg/kg/injection, schedule: Q04DX003 (ip), vehicle: Klucel (hydroxypropylcellulose) (HPC)) 102 % of control; (endpoint: mean survival time, dose: 50.0 mg/kg/injection, schedule: Q01DX009 (ip), vehicle: Klucel (hydroxypropylcellulose) (HPC)) 101 % of control; (endpoint: mean survival time, dose: 50.0 mg/kg/injection, schedule: Q04DX003 (ip), vehicle: Klucel (hydroxypropylcellulose) (HPC)) 102 % of control. The T/C is, setting by setting: under setting [6], 101 % of control; under setting [8], 95 % of control and 89 % of control.
Turning to `Cc1nonc1C`, the T/C runs as follows: (endpoint: mean survival time, dose: 31.2 mg/kg/injection, schedule: Q01DX Z (ip), vehicle: other) 100 % of control; (endpoint: mean survival time, dose: 62.5 mg/kg/injection, schedule: Q01DX Z (ip), vehicle: other) 90 % of control; under setting [8], 103 % of control; (endpoint: mean survival time, dose: 125.0 mg/kg/injection, schedule: Q01DX Z (ip), vehicle: other) 88 % of control; under setting [9], 98 % of control; (endpoint: mean survival time, dose: 250.0 mg/kg/injection, schedule: Q01DX Z (ip), vehicle: other) 90 % of control. In addition, under setting [10], the T/C is 106 % of control.
As to `CSc1nc(Cl)c2ccn(C)c2n1`, the T/C is 100 % of control (endpoint: mean survival time, dose: 75.0 mg/kg/injection, schedule: Q01DX001 (ip), vehicle: other); 96 % of control (endpoint: mean survival time, dose: 150.0 mg/kg/injection, schedule: Q01DX001 (ip), vehicle: other); 100 % of control (endpoint: mean survival time, dose: 300.0 mg/kg/injection, schedule: Q01DX001 (ip), vehicle: other).
As for `CC([NH-])=O.CC([NH-])=O.[Pt+2]`, the T/C reads like this: (endpoint: mean survival time, dose: 100.0 mg/kg/injection, schedule: Q01DX009 (ip), vehicle: water) 105 % of control; (endpoint: mean survival time, dose: 100.0 mg/kg/injection, schedule: Q04DX003 (ip), vehicle: water) 101 % of control; (endpoint: mean survival time, dose: 200.0 mg/kg/injection, schedule: Q01DX009 (ip), vehicle: water) 95 % of control; (endpoint: mean survival time, dose: 200.0 mg/kg/injection, schedule: Q04DX003 (ip), vehicle: water) 103 % of control.
For the compound `Nc1c(Br)cc(O)c2c1C(=O)c1ccccc1C2=O`, the T/C is 88 % of control under setting [6]; 100 % of control under setting [8]; 90 % of control under setting [7]; 100 % of control under setting [9]; 90 % of control (endpoint: mean survival time, dose: 400.0 mg/kg/injection, schedule: Q01DX009 (ip), vehicle: Klucel (hydroxypropylcellulose) (HPC)); 96 % of control under setting [10].
In the case of `O=C(O)COc1ccc(Cl)cc1CCl`, the T/C is, setting by setting: under setting [8], 100 % of control; under setting [9], 98 % of control; under setting [10], 102 % of control.
For `COC(=O)c1ccc(N=NN(C)C)cc1`, the T/C is 100 % of control (endpoint: median survival time, dose: 65.0 mg/kg/injection, schedule: Q01DX001 (ip), vehicle: steriod suspending solution); 110 % of control (endpoint: median survival time, dose: 108.0 mg/kg/injection, schedule: Q01DX001 (ip), vehicle: steriod suspending solution); 100 % of control (endpoint: median survival time, dose: 108.0 mg/kg/injection, schedule: Q01DX009 (ip), vehicle: steriod suspending solution); 110 % of control (endpoint: median survival time, dose: 180.0 mg/kg/injection, schedule: Q01DX001 (ip), vehicle: steriod suspending solution); 150 % of control (endpoint: median survival time, dose: 180.0 mg/kg/injection, schedule: Q04DX003 (ip), vehicle: steriod suspending solution).
On to `CCOC(=O)C(Cc1ccccc1)C(=O)OCC`, for which the T/C is 96 % of control under setting [3], 97 % of control under setting [4] and 96 % of control under setting [5].
In the case of `CN1CCc2[nH]c3ccccc3c2C1`, the T/C reads like this: (endpoint: mean survival time, dose: 75.0 mg/kg/injection, schedule: Q04DX003 (ip), vehicle: Klucel (hydroxypropylcellulose) (HPC)) 93 % of control; (endpoint: mean survival time, dose: 150.0 mg/kg/injection, schedule: Q04DX003 (ip), vehicle: Klucel (hydroxypropylcellulose) (HPC)) 93 % of control.
`O=NN(C(=O)Nc1ccccc1)C1CCCCC1`: the T/C is, setting by setting: (endpoint: mean survival time, dose: 18.0 mg/kg/injection, schedule: Q01DX001 (ip), vehicle: carboxymethylcellulose (CMC)) 96 % of control; (endpoint: mean survival time, dose: 37.0 mg/kg/injection, schedule: Q01DX001 (ip), vehicle: carboxymethylcellulose (CMC)) 94 % of control; (endpoint: mean survival time, dose: 75.0 mg/kg/injection, schedule: Q01DX001 (ip), vehicle: carboxymethylcellulose (CMC)) 98 % of control; (endpoint: mean survival time, dose: 100.0 mg/kg/injection, schedule: Q01DX001 (ip), vehicle: carboxymethylcellulose (CMC)) 105 % of control; (endpoint: mean survival time, dose: 150.0 mg/kg/injection, schedule: Q01DX001 (ip), vehicle: carboxymethylcellulose (CMC)) 102 % of control; (endpoint: mean survival time, dose: 200.0 mg/kg/injection, schedule: Q01DX001 (ip), vehicle: carboxymethylcellulose (CMC)) 104 % of control. Moreover, the T/C (endpoint: mean survival time, dose: 250.0 mg/kg/injection, schedule: Q01DX001 (ip), vehicle: carboxymethylcellulose (CMC)) was 102 % of control.
Take `NC(CO)C(=O)O.[Cl-].[Cl-].[Cl-].[Cl-].[Pt+2]` (stereo not drawn): the T/C runs as follows: (endpoint: mean survival time, dose: 12.5 mg/kg/injection, schedule: Q01DX009 (ip), vehicle: saline) 114 % of control and 117 % of control; (endpoint: mean survival time, dose: 25.0 mg/kg/injection, schedule: Q01DX009 (ip), vehicle: saline) 122 % of control; (endpoint: mean survival time, dose: 50.0 mg/kg/injection, schedule: Q01DX009 (ip), vehicle: saline) 119 % of control.
As for `CSCCOP(=O)(N(C)C)N(C)C`, the T/C runs as follows: (endpoint: mean survival time, dose: 100.0 mg/kg/injection, schedule: Q04DX002 (ip), vehicle: Klucel (hydroxypropylcellulose) (HPC)) 103 % of control; (endpoint: mean survival time, dose: 200.0 mg/kg/injection, schedule: Q04DX002 (ip), vehicle: Klucel (hydroxypropylcellulose) (HPC)) 103 % of control; (endpoint: mean survival time, dose: 400.0 mg/kg/injection, schedule: Q04DX002 (ip), vehicle: Klucel (hydroxypropylcellulose) (HPC)) 88 % of control.
Consider `Nc1ncnc2c1ncn2C1OC(CO)C(O)C1OCc1ccccc1` (stereo not drawn), for which the T/C is 90 % of control (endpoint: mean survival time, dose: 100.0 mg/kg/injection, schedule: Q01DX005 (ip), vehicle: saline) and 103 % of control (endpoint: mean survival time, dose: 200.0 mg/kg/injection, schedule: Q01DX005 (ip), vehicle: saline).
